Data as given in US20210290597A1, “METHOD OF TREATING A CONDITION ASSOCIATED WITH NEURODEGENERATION USING INHIBITORS OF OAT3” (Neuropore Therapies, Inc., priority 2018, published 2021).

How the values were obtained:
[1] = target: T1, human transporter OATP1B1 (Homo sapiens, UniProt Q9Y6L6); experiment: In vitro ion transport assay 1, OATP1B1; format: cell-based; conditions: probe substrate 2 μM [3H]-estradiol-17β-D-glucuronide
T1 construct: expressed in transfected cells; host or cells: MDCK-II
T1 sequence (Q9Y6L6 1-691): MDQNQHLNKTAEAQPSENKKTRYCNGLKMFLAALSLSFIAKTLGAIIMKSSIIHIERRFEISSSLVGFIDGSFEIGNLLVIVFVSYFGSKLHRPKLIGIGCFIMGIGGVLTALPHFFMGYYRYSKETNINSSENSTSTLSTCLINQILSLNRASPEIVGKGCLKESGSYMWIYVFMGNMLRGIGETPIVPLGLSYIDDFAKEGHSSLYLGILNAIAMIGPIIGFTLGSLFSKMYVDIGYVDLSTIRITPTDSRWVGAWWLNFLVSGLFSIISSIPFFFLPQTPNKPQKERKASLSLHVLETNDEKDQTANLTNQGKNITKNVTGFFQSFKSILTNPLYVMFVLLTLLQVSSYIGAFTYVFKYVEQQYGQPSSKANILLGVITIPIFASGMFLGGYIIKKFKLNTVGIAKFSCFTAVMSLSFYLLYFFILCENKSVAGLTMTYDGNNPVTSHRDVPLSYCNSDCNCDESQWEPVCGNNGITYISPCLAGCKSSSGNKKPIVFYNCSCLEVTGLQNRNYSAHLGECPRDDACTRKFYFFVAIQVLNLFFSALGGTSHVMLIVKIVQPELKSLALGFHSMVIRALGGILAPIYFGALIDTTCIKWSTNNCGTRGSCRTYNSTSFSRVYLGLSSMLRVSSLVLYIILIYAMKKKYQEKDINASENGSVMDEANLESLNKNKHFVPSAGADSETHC
Experimental: (§1) Compound 1 was studied in the concentration range of 0.1-100 μM for its potency against transport mediated by various transporter proteins. [table]

[2] = tested on: Translocator Protein (18 kDa) (TSPO); experiment: TSPO immunofluorescence in cortex, L61 ASYN transgenic mice, 3 month study; format: in vivo; conditions: 5 and 10 mg/kg i.p. daily, 3 months
Experimental: Briefly, Compound 1 was injected into L61 ASYN transgenic mice and non-transgenic control mice (i.p., once daily) at doses of 5 and 10 mg/kg for 3 months (79 total mice, n=14-17 mice per treatment group). The vehicle control consisted of a solution containing 5% DMSO+20% Cremphor EL+0.9% normal saline. The baseline grip strength of mice was evaluated prior to starting treatments for the 3 month study, and then re-evaluated following 70 days of treatment with vehicle or Compound 1 (5 or 10 mg/kg, i.p. injection daily).
Neuroinflammation is associated with increased expression of the 18-kDa translocator protein (TSPO), which is a marker for inflammation and is present on the mitochondria of activated microglia, astroglia and macrophages (Crawshaw and Robertson 2017). The effects of Compound 1 on the levels of Translocator Protein (18 kDa) (TSPO) were assessed in both L61 ASYN transgenic and non-transgenic mice in the aforementioned 3 month administration study. At the end of the study, the mice were sacrificed, and immunofluoresence (IF) detection of TSPO were assessed in the harvested brain tissues.
The harvested brain tissues were fixed (drop fixed in 4% paraformaldehyde), sectioned using a vibratome, and representative sections were assessed for TSPO with standard immunofluorescence (IF) staining. […]

human transporter BCRP = target: T2, human transporter BCRP (Homo sapiens, UniProt Q9UNQ0); experiment: In vitro ion transport assay 1, BCRP; format: cell-based; conditions: probe substrate 2 μM [3H]-prazosin
T2 construct: expressed in transfected cells; host or cells: MDCK-II
T2 sequence (Q9UNQ0 1-655): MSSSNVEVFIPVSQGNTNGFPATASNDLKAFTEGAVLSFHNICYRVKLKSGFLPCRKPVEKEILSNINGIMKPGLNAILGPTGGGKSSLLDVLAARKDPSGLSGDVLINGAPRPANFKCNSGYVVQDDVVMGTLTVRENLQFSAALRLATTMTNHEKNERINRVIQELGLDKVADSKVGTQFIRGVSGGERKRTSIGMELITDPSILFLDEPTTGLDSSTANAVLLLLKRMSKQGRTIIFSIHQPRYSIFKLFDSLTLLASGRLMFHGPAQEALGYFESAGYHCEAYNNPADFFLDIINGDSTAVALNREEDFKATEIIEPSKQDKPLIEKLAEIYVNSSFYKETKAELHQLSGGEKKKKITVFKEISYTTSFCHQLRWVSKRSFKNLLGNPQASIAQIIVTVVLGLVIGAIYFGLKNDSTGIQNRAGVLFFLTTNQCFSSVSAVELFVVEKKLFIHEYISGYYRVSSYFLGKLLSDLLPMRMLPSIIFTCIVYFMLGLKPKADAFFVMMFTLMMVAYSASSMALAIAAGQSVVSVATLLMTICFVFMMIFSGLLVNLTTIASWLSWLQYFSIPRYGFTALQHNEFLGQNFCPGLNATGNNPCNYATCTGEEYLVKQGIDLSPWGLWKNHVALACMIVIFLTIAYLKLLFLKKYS
Experimental: as §1

[3] = tested on: dopaminergic (DAT) transporter; experiment: DAT immunolabeling in striatum, L61 ASYN transgenic mice; format: in vivo; conditions: 3 months
Experimental: The harvested brain tissues were drop fixed using 4% PFA and sectioned on a vibratome, and representative sections corresponding to the striatum and cerebellum were assessed for DAT with IHC staining.
Immunolabeling studies of DAT were conducted using a monoclonal antibody (1:500; MAB369; Millipore, Temecula, Calif.) and a biotinylated secondary antibody (1:100; BA4000, Vector Labs) and analysis was performed on blindcoded sections from Line 61 transgenic and non-transgenic mice. Slides were digitized using a high resolution automated Nanozoomer slide scanner (Hamamatsu Corp.). Digitized images were analyzed using Halo (Indica Labs) image analysis software package by placing an ROI frame within the dorsal striatum and another within a separate reference brain region (for normalization of DAT signal). A thresholding algorithm was defined and then applied equally to all images to determine the average optical density of DAT immunolabeling across each ROI The results of the analysis were then exported for graphing and statistical analysis and the striatal DAT:cortical (reference region) DAT optical densities ratio was calculated for each subject.
Quantification of DAT density was carried out by calculating the immunofluorescence in striatal sections against that in cerebellum sections to derive a striatal-to-reference ratio.

IC50 [1]: 14.6 µM
IC50 (human transporter BCRP): 51.5 µM
Compound: O=S(=O)(c1ccc(-n2cn[nH]c2=S)cc1)c1ccc(Cl)c(C(F)(F)F)c1 [Compound 1, 4-(4-((4-chloro-3-(trifluoromethyl)phenyl)sulfonyl)phenyl)-2,4-dihydro-3H-1,2,4-triazole-3-thione]
levels of TSPO in cortex vs vehicle control [2]: significantly decreased
striatal levels of DAT, staining intensity in representative images vs vehicle-treated L61 mice ([3]; 5 mg/kg or 10 mg/kg daily): restoring striatal levels of DAT
DAT striatal-to-reference ratio, quantification (FIG. 24) ([3]; 10 mg/kg daily): reduces the GFAP levels in a statistically significant manner
